Laboratory results from patent US20020012620A1, “BACTERIAL LEACHING OF COPPER AND ZINC WITHOUT IRON LEACHING” (priority 1998, published 2002).
“And” between values parts separate entries of the source, which are not always exact repeats. Equal entries are not always repeated.

Tests used:
T. thiooxidans [1] = test system: T. thiooxidans
Protocol: (§1) Growth inhibition studies were carried out in a Micro-oxymax™ respirometer at Cominco Research in Trail, British Columbia, wherein the O2 and CO2 consumption (at 52 minute intervals) of cultures at 26° C. were monitored over time (45-50 hours). Each flask contained a total volume of 100 ml, comprised of 5 ml inoculum culture plus 95 ml HP medium with varying concentrations of inhibitors plus Fe^2+ or S^0 as growth substrate (33.3 g FeSO4.7H2O or 25 g sulfur per liter). In the S^0 medium, HP medium was supplemented with 18 mg FeSO4.7H2O per liter. A growth curve was generated from the monitored O2 and CO2 consumption rates over time, as described below.

T. ferrooxidans [2] = test system: T. ferrooxidans
Protocol: as §1

[3] = test system: Thiobacillus ferrooxidans; assay: S^0 oxidation by resting cells (oxygen consumption rate, Oxygraph); format: cell-based
[4] = test system: bacterial leaching of a complex sulfide ore; assay: Bacterial leaching of a complex sulfide ore from the Flin Flon mine; format: cell-based, Thiobacillus thiooxidans SM-7
Protocol: In this embodiment of the invention, bacterial strains Thiobacillus ferrooxidans SM-4 and Thiobacillus thiooxidans SM-6 (FIGS. 1, 3 and 4 and Table 2) or SM-7 (Table 5) were used. Specifically, T. ferrooxidans was grown on Fe^2+ or S^0 while T. thiooxidans was grown only on sulfur. HP medium, described in Suzuki et al, 1990, Appl Environ Microbiol 56:1620-1626, consisting of: 0.4 g (NH4)2SO4, 0.1 g K2HPO4, 0.4 g MgSO4.7H2O per liter, adjusted to pH 2.3 with H2SO4 was used for growth of bacteria on Fe^2+, for growth in a Micro-oxymax™ respirometer (both Fe^2+ and S^0 growth), and for mineral leaching experiments, as described below. For growth on Fe^2+, 33.3 g FeSO4.7H2O per liter (pH 2.3, filter-sterilized) was added to the above-described HP medium. Cultures were grown in shake flasks (100 ml) with 10% inoculum (v/v) in 250 ml Erlenmeyer™ flasks at 25° C. at 120 rpm for 24 hours. It is of note that for large scale growth, medium volume and flask size were increased.
. In fact, the highest level of Cu leaching using this ore is nearly five times greater than previously reported values in the absence of additional anions (Lizama and Suzuki, 1988, Biotechnol Bioeng 32: 110-116). […] That is, copper and zinc can be recovered from a complex ore without the need for separation simply by replacing the media following completion of copper leaching because of this lag time.

T. thiooxidans [5] = assay: Bacterial leaching of flotation tailings with T. thiooxidans; format: cell-based, Thiobacillus thiooxidans
Protocol: (§2) Bacterial leaching was performed in shake flask experiments with 250 ml Erlenmeyer™ flasks containing 95 ml of HP medium with and without inhibitors unless otherwise specified, 4 ml of inoculum (Fe^2+-grown T. ferrooxidans, S^0-grown T. thiooxidans or both) and 5 g of floatation tailings supplied by Cominco Research were used, as described below. The flasks were grown at 26° C. on a rotary shaker at 150 rpm for 14 days. At various time intervals, 5 ml samples were taken to determine the concentrations of dissolved zinc and iron in the leachate as well as the percentage of zinc and iron remaining in the precipitate (after filtration of the leachate).

[6] = test system: Thiobacillus ferrooxidans; assay: Fe^2+ oxidation by resting cells (oxygen consumption rate, Oxygraph); format: cell-based; details: for inhibition of Fe^2+ oxidation: pH 3
Protocol: For the resting cell experiments, cells from large scale growth were filtered through Whatman™ No. 1 filter paper under suction before centrifugation at 8000× g. The cells were washed in 0.1 M β-alanine-H2SO4 (pH 2.3) and suspended in the same buffer to a concentration of 50 mg wet cells per ml.
The rate of ferrous iron and sulfur oxidation by the resting cells was determined by the oxygen consumption rate (nmol O2/min) in a Gilson™ Oxygraph with a Clark™ oxygen electrode at 25° C. The reaction mixture in a total volume of 1.2 ml contained 10-100 μl cell suspension, 0.5 μmol FeSO4 or 0.1 ml elemental sulfur suspension (32 mg in 500 ppm Tween-80™) and 0.1 M β-alanine-H2SO4 at pH 3.0 (standard condition) or varying inhibitory concentrations of salts at pH 3.0, as described below. Specifically, the effect of standard biological oxidation inhibitors, sodium azide and sodium cyanide in 0.1 M β-alanine-H2SO4 at pH 3.0 was studied.

[7] = test system: bioleaching of chalcopyrite (CuFeS2) and sphalerite mixture; format: cell-based
Protocol: as §2

[8] = test system: T. ferrooxidans and T. thiooxidans
Protocol: as §2

T. ferrooxidans [9] = format: cell-based, Thiobacillus ferrooxidans
Protocol: as §2

[10] = Acidithiobacillus ferrooxidans, pH 3, read-out: inhibition of S^0 oxidation
[11] = Acidithiobacillus ferrooxidans, pH 3, read-out: inhibition of Fe^2+ oxidation

Row | Molecule | S^0 oxidation during growth (T. thiooxidans [1]) | Fe^2+ oxidation during growth (T. ferrooxidans [2]) | inhibition of S^0 oxidation ([3]; pH 3) [%] | Cu leaching [4] | Zn leaching [4] | Fe leaching (T. thiooxidans [5]) | inhibition of Fe^2+ oxidation [6] | extraction of Zn [7] | inhibition at 10 µM [3, 10] [%] | inhibition at 50 µM [3, 10] [%] | inhibition at 10 µM [6, 11] [%] | inhibition at 50 µM [6, 11] [%] | Fe leaching [8] | inhibition of Fe leaching relative to Zn leaching [8] | reduction in Zn leaching (T. ferrooxidans [9]) [%] | iron oxidation [7] | Fe leaching (T. ferrooxidans [9]) | Zn leaching (T. ferrooxidans [9])
1 | potassium chloride | stimulated | inhibited | 10 | stimulation | stimulation | reduced Fe leaching at high concentrations, albeit to a much smaller degree | 30% and 40% | stimulated | – | – | – | – | – | – | – | – | – | –
2 | [N-]=[N+]=[N-] [sodium azide, reference compound] | – | – | – | – | – | – | – | – | 35 | 90 | 90 | 95 | – | – | – | – | – | –
3 | potassium phosphate | stimulated | inhibited | – | stimulation | stimulation | strongly inhibited | 60% | slightly reduced | – | – | – | – | no Fe leaching | most effective inhibitor of Fe leaching without inhibiting Zn leaching extensively | 50 | reduced | – | –
4 | potassium nitrate | – | – | – | – | – | reduced Fe leaching at high concentrations, albeit to a much smaller degree | 90% and 100% | – | – | – | – | – | – | – | – | – | reduced the Fe leaching similar to phosphate | considerably inhibited
